Measurements reported in paper PMC12477080, “Polychlorinated biphenyls (PCBs) interact with drug metabolism in vivo” (Archives of Toxicology, 2025).

Columns and labels:
CYP2C9 = test: CYP phenotyping cocktail clinical study: torsemide/OH-torsemide metabolic ratio and its association with PCB plasma levels; details: linear regression of MR AUC0–8 h OH-torsemide/torsemide (CYP2C9 activity) on PCB plasma concentration
Protocol: (§1) The participants were ascertained not to have any acute disease by medical history, physical examination, laboratory screening, including hematological and biochemical blood tests, and a 12-lead electrocardiogram. […] The demographic data of the subjects are summarized in Table 1 in the supplemental data. At the enrollment visit, 2 blood samples (9 ml each) were collected into ethylenediaminetetraacetic acid (EDTA)-containing tubes taken from each subject for analyzing the plasma concentrations of PCB congeners and for pharmacogenetic analysis.
(§2) Participants stayed fasted from the evening before until 3 h after drug administration. After that, a meal was provided. Water and juice were permitted but alcoholic and caffeinated beverages were not allowed from the evening before drug administration until the last blood sample was taken on the next day. Venous blood samples (9 ml each) were collected through an intravenous catheter immediately before and 0.25, 0.5, 0.75, 1, 1.5, 2, 2.5, 3, 4, 5, 6, 7, 8, and 24 h after drug administration. Blood was drawn into EDTA-coated tubes, centrifuged at 1500 g for 10 min at 4 °C, and plasma samples were subsequently stored at − 80 °C until further analysis. After completely voiding the bladder immediately before drug administration, the participants collected urine from 0 to 24 h after drug administration. After weighing the collected urine, a 10 ml aliquot of each fraction was taken.
(§3) Commercially sourced standards and internal standards were used for quantification (see Supplemental Materials). In brief, 20 µl of the plasma samples were protein-precipitated with 80 µl methanol containing all internal standards or were treated for 16 h at 37 °C with 2 µl β-glucuronidase (1,000,000 Units) for deconjugation before protein precipitation with 78 µl methanol containing internal standards. Samples were centrifuged for 20 min, at 4 °C and 17,000 × g, and 40 µl of the supernatants were diluted with 40 µl LC–MS grade water, centrifuged again for 5 min at 4 °C and 17,000 × g and 50 µl supernatant were transferred to LC–MS vials 5 µl of the samples were injected into the LC–MS system.
(§4) An Agilent 1290 Infinity II UHPLC coupled with a SCIEX QTRAP6500 + triple quadrupole mass spectrometer was used. Chromatographic separation was achieved on an Agilent Poroshell 120 EC-C18 (1.9 µm, 2.1 × 50 mm) column with A: 0.1% formic acid in water and B: methanol with a flow rate of 0.7 ml/min and a total run time of 8.5 min. Analytes were eluted using a gradient program. The following gradient steps represent gradual changes in % B over time: 5% B from 0 to 0.2 min, 30% B at 2 min, 34% B at 4.8 min, 95% B at 6.5 min, 95% B at 7.5 min and re-equilibrating to 5% B at 7.7 min and 5%B till 8.5 min. A representative chromatogram is shown in supplemental Fig. 2. The scheduled MRM mode was applied for analyte detection in both positive and negative ESI modes (Supplementary Table 4). Calibration curves were constructed with linear regression using weighted (1/x^2) models (detailed information in supplemental methods).
(§5) Partial areas under the plasma concentration–time curves from 0 to 3 h (AUC0–3 h), from 0 to 4 h (AUC0–4 h), and from 0 to 8 h (AUC0–8 h) were calculated based on measured concentrations by the linear trapezoidal rule without extrapolation. […] Metabolic ratios (MR) were calculated by dividing the partial AUC of the metabolite by the respective partial AUC of the parent drug. The MRs were used as biomarkers for the individual CYP activities of the study subjects.

CYP1A2 = test: CYP phenotyping cocktail clinical study: caffeine/paraxanthine metabolic ratio and its association with PCB plasma levels; details: linear regression of MR AUC0–8 h paraxanthine/caffeine (CYP1A2 activity) on PCB plasma concentration
Protocol: as §1, §2, §3
An Agilent 1290 Infinity II UHPLC coupled with a SCIEX QTRAP6500 + triple quadrupole mass spectrometer was used. […]
as §5, with “The MRs were used as biomarkers for the individual CYP activities of the study subjects.” left out

CYP2D6 = test: CYP phenotyping cocktail clinical study: metoprolol/α-OH-metoprolol metabolic ratio and its association with PCB plasma levels; details: linear regression of MR AUC0–8 h α-OH-metoprolol/metoprolol (CYP2D6 activity) on PCB plasma concentration
Protocol: as §1, §2, §3, §4, §5

[1] = Determination of PCB concentrations in plasma of HELPcB and control participants; assay type: in vivo; details: human plasma; for PCB plasma concentration, Geometric mean, HELPcB: HELPcB group; for PCB plasma concentration, Geometric mean, HELPcB / PCB plasma concentration, Geometric mean, Control: N 10; for PCB plasma concentration, Geometric mean, Control: control group
Protocol: The laboratory regularly participates in round robins for the determination of PCBs in plasma (www.g-equas.de).
Plasma concentrations of PCB congeners were quantified in blood samples from all participants using gas chromatography/mass spectrometry (GC–MS) (Fig. 2A and Supplementary Table 2). A total of 19 PCB congeners were measured in control (n = 10) and HELPcB (n = 10) participants, with PCBs detected in all individuals. […] In the control group, PCB plasma concentrations primarily reflected background environmental exposure, such as dietary intake, representing the general population’s burden.

[2] = Stability of substrates and metabolites in quality control samples (benchtop, autosampler, freeze-thaw); assay type: physicochemical; details: for Autosampler stability (24 h) Av. Accuracy (%): 10° C for 24 hours in the autosampler; for 3x freeze-thaw Av. Accuracy (%): after three freeze-thaw cycles; for Benchtop stability (19 h) Ac. Accuracy (%): room temperature for 19 hours
Description: The method was validated for intra- and interday accuracy and precision, stability, and matrix effects. […] Validation details are provided in Supplementary Tables 5–7 and supplemental Fig. 3. Glucuronidase/sulfatase digests were used to isolate CYP-specific metabolic activities, reducing interference from polymorphic UDP-glucuronosyltransferase (UGT) and sulfotransferase isoforms.
Supplemental table 6: Stability of the substrates and metabolites. Quality control samples were left at room temperature for 19 hours (benchtop stability) and at 10° C for 24 hours in the autosampler (autosampler stability) or were measured after three freeze-thaw cycles. Stability samples were measured against a freshly prepared set of calibrators and quality control samples.

Clc1cc(Cl)c(-c2ccc(Cl)c(Cl)c2Cl)cc1Cl [PCB138]
t value (CYP2C9): 0,341 | β (standardized regression coefficient) (CYP2C9): 0,080 | t value (CYP2C9; PM excl): 0,219 | β (standardized regression coefficient) (CYP2C9; PM excl): 0,053 | t value (CYP1A2): 0,221 | β (standardized regression coefficient) (CYP1A2): 0,052 | t value (CYP2D6): 0,157 | β (standardized regression coefficient) (CYP2D6): 0,037 | PCB plasma concentration, Mean [±SD] HELPcB ([1]; HELPcB (occupationally exposed) group): 0.795 ± 0.593 ng/mL | PCB plasma concentration, Geometric mean, HELPcB [1]: 0.672 ng/mL | PCB plasma concentration, Mean [±SD] all ([1]; all participants): 0.493 ± 0.516 ng/mL | PCB plasma concentration, Mean [±SD] control ([1]; control group (background exposure)): 0.191 ± 0.090 ng/mL | PCB plasma concentration, Geometric mean, Control [1]: 0.173 ng/mL

Clc1ccc(-c2ccc(Cl)cc2Cl)cc1 [PCB 28]
PCB plasma concentration, Geometric mean, HELPcB [1]: 0.014 ng/mL | PCB plasma concentration, Geometric mean, Control [1]: 0.006 ng/mL

Clc1ccc(Cl)c(-c2cc(Cl)ccc2Cl)c1 [PCB 52]
PCB plasma concentration, Geometric mean, HELPcB [1]: BLQ | PCB plasma concentration, Geometric mean, Control [1]: BLQ

Clc1ccc(-c2ccc(Cl)c(Cl)c2)cc1Cl [PCB 77]
PCB plasma concentration, Geometric mean, HELPcB [1]: BLQ | PCB plasma concentration, Geometric mean, Control [1]: BLQ

Clc1ccc(-c2cc(Cl)c(Cl)c(Cl)c2)cc1 [PCB 81]
PCB plasma concentration, Geometric mean, HELPcB [1]: BLQ | PCB plasma concentration, Geometric mean, Control [1]: BLQ

Clc1ccc(Cl)c(-c2cc(Cl)c(Cl)cc2Cl)c1 [PCB 101]
PCB plasma concentration, Geometric mean, HELPcB [1]: 0.005 ng/mL | PCB plasma concentration, Geometric mean, Control [1]: BLQ

Clc1ccc(-c2ccc(Cl)c(Cl)c2Cl)cc1Cl [PCB 105]
PCB plasma concentration, Geometric mean, HELPcB [1]: 0.014 ng/mL | PCB plasma concentration, Geometric mean, Control [1]: BLQ

Clc1ccc(-c2cc(Cl)c(Cl)c(Cl)c2Cl)cc1 [PCB 114]
PCB plasma concentration, Geometric mean, HELPcB [1]: 0.008 ng/mL | PCB plasma concentration, Geometric mean, Control [1]: BLQ

Clc1ccc(-c2cc(Cl)c(Cl)c(Cl)c2)c(Cl)c1 [PCB 123]
PCB plasma concentration, Geometric mean, HELPcB [1]: BLQ | PCB plasma concentration, Geometric mean, Control [1]: BLQ

Clc1ccc(-c2cc(Cl)c(Cl)c(Cl)c2)cc1Cl [PCB 126]
PCB plasma concentration, Geometric mean, HELPcB [1]: BLQ | PCB plasma concentration, Geometric mean, Control [1]: BLQ

Clc1cc(Cl)c(-c2cc(Cl)c(Cl)cc2Cl)cc1Cl [PCB 153]
PCB plasma concentration, Geometric mean, HELPcB [1]: 0.919 ng/mL | PCB plasma concentration, Geometric mean, Control [1]: 0.297 ng/mL

Clc1ccc(-c2cc(Cl)c(Cl)c(Cl)c2Cl)cc1Cl [PCB 156]
PCB plasma concentration, Geometric mean, HELPcB [1]: 0.097 ng/mL | PCB plasma concentration, Geometric mean, Control [1]: 0.036 ng/mL

Clc1cc(-c2ccc(Cl)c(Cl)c2Cl)cc(Cl)c1Cl [PCB 157]
PCB plasma concentration, Geometric mean, HELPcB [1]: 0.016 ng/mL | PCB plasma concentration, Geometric mean, Control [1]: 0.005 ng/mL

Clc1cc(Cl)c(-c2cc(Cl)c(Cl)c(Cl)c2)cc1Cl [PCB 167]
PCB plasma concentration, Geometric mean, HELPcB [1]: 0.027 ng/mL | PCB plasma concentration, Geometric mean, Control [1]: 0.008 ng/mL

Clc1cc(-c2cc(Cl)c(Cl)c(Cl)c2)cc(Cl)c1Cl [PCB 169]
PCB plasma concentration, Geometric mean, HELPcB [1]: BLQ | PCB plasma concentration, Geometric mean, Control [1]: BLQ

Clc1cc(Cl)c(-c2cc(Cl)c(Cl)c(Cl)c2Cl)cc1Cl [PCB 180]
PCB plasma concentration, Geometric mean, HELPcB [1]: 0.808 ng/mL | PCB plasma concentration, Geometric mean, Control [1]: 0.372 ng/mL

Clc1cc(-c2cc(Cl)c(Cl)c(Cl)c2Cl)cc(Cl)c1Cl [PCB 189]
PCB plasma concentration, Geometric mean, HELPcB [1]: 0.014 ng/mL | PCB plasma concentration, Geometric mean, Control [1]: 0.007 ng/mL

Cc1ncc2n1-c1ccc(Cl)cc1C(c1ccccc1F)=NC2 [midazolam, reference compound]
Autosampler stability (24 h) Av. Accuracy (%) ([2]; QC conc. 0,1 ng/ml): 107,46% | 3x freeze-thaw Av. Accuracy (%) ([2]; QC conc. 0,1 ng/ml): 104,96% | Benchtop stability (19 h) Ac. Accuracy (%) ([2]; QC conc. 0,1 ng/ml): 106,81% | Autosampler stability (24 h) Av. Accuracy (%) ([2]; QC conc. 0,3 ng/ml): 104,87% | 3x freeze-thaw Av. Accuracy (%) ([2]; QC conc. 0,3 ng/ml): 98,61% | Benchtop stability (19 h) Ac. Accuracy (%) ([2]; QC conc. 0,3 ng/ml): 104,39% | Autosampler stability (24 h) Av. Accuracy (%) ([2]; QC conc. 0,05 ng/ml): 103,51% | 3x freeze-thaw Av. Accuracy (%) ([2]; QC conc. 0,05 ng/ml): 109,93% | Benchtop stability (19 h) Ac. Accuracy (%) ([2]; QC conc. 0,05 ng/ml): 89,44% | Autosampler stability (24 h) Av. Accuracy (%) ([2]; QC conc. 12 ng/ml): 110,93% | 3x freeze-thaw Av. Accuracy (%) ([2]; QC conc. 12 ng/ml): 103,85% | Benchtop stability (19 h) Ac. Accuracy (%) ([2]; QC conc. 12 ng/ml): 109,38% | Autosampler stability (24 h) Av. Accuracy (%) ([2]; QC conc. 30 ng/ml): 99,76% | 3x freeze-thaw Av. Accuracy (%) ([2]; QC conc. 30 ng/ml): 97,41% | Benchtop stability (19 h) Ac. Accuracy (%) ([2]; QC conc. 30 ng/ml): 99,8%

Cc1cccc(Nc2ccncc2S(=O)(=O)NC(=O)NC(C)C)c1 [torsemide, reference compound]
Autosampler stability (24 h) Av. Accuracy (%) ([2]; QC conc. 1 ng/ml): 105,13% | 3x freeze-thaw Av. Accuracy (%) ([2]; QC conc. 1 ng/ml): 102,74% | Benchtop stability (19 h) Ac. Accuracy (%) ([2]; QC conc. 1 ng/ml): 97,46% | Autosampler stability (24 h) Av. Accuracy (%) ([2]; QC conc. 2 ng/ml): 108,32% | 3x freeze-thaw Av. Accuracy (%) ([2]; QC conc. 2 ng/ml): 105,85% | Benchtop stability (19 h) Ac. Accuracy (%) ([2]; QC conc. 2 ng/ml): 107,17% | Autosampler stability (24 h) Av. Accuracy (%) ([2]; QC conc. 6 ng/ml): 108,92% | 3x freeze-thaw Av. Accuracy (%) ([2]; QC conc. 6 ng/ml): 106,12% | Benchtop stability (19 h) Ac. Accuracy (%) ([2]; QC conc. 6 ng/ml): 107,51% | Autosampler stability (24 h) Av. Accuracy (%) ([2]; QC conc. 240 ng/ml): 109,92% | 3x freeze-thaw Av. Accuracy (%) ([2]; QC conc. 240 ng/ml): 103,96% | Benchtop stability (19 h) Ac. Accuracy (%) ([2]; QC conc. 240 ng/ml): 108,15% | Autosampler stability (24 h) Av. Accuracy (%) ([2]; QC conc. 600 ng/ml): 97,91% | 3x freeze-thaw Av. Accuracy (%) ([2]; QC conc. 600 ng/ml): 96,67% | Benchtop stability (19 h) Ac. Accuracy (%) ([2]; QC conc. 600 ng/ml): 99,27%
